Results as given in patent publication US10647653B2, “Crystal of monovalent cation salt of 3-hydroxyisovaleric acid and process for producing the crystal” (KYOWA HAKKO BIO CO., LTD., priority 2015, dated 2020).
Where two headings read alike, the source gives them in different places.

How the values were obtained:
[1] = Mixing with 0.2 M phosphate buffer, light transmittance (660 nm) to evaluate insoluble salt formation; type: physicochemical
Description: A 100 g/L solution, in terms of free form, was prepared using the crystal of monovalent cation salt nonhydrate of HMB, obtained in each of Examples 2, 5 and 7, and mixed with 0.2 M phosphate buffer (pH: 6.80) in an arbitrary mixing ratio. The solution after mixing was measured for the light transmittance (660 nm) to evaluate the presence or absence of insoluble salt formation. In Table 13, “-” indicates unevaluated.

[2] = type: physicochemical
Description: The sodium HMB nonhydrate obtained in Example 2 was mixed with a glucose-amino acids-electrolytes infusion solution for peripheral vain nutrition [pH: about 6.7; Product Name: Aminofluid Infusion Solution (Otsuka Pharmaceutical Factory, Inc.)] to obtain 0, 0.11, 0.21 and 0.42 weight/volume % solutions at final concentration in terms of free form. The light transmittance (660 nm) was measured by ultraviolet and visible spectrophotometer immediately after the mixing or 24 hours after being left at room temperature to evaluate the presence or absence of insoluble salt formation.

[3] = rat, in vivo
Description: The solution was continuously administered to a rat on which operative stress was incurred by intestinal tract scratch operation at a normal dose (240 mL/kg/day) for 3 days. On the final day of administration, urine was collected by 24-hour urine collection and measured for the urinary electrolyte concentration.

[4] = pH of aqueous solution of 100 g/L salt crystal in terms of free HMB; type: physicochemical
Description: As for pH, an aqueous solution of 100 g/L salt crystal in terms of free HMB was measured.

[5] = Measurement of solubility in water at room temperature (HMB concentration of supernatant by HPLC); type: physicochemical
Description: The crystal of monovalent cation salt nonhydrate of HMB, obtained in each of Examples 2, 5 and 7, was added at room temperature until it dissolved in water and after keeping the solution for a sufficient time under stirring, the supernatant containing no crystal was sampled and measured for the HMB concentration by using HPLC.

[6] = mixing ratio 0.33 Vol/Vol (aqueous 100 g/L HMB solution/0.2M phosphate buffer pH 6.80)
[7] = mixing ratio 0.57 Vol/Vol (aqueous 100 g/L HMB solution/0.2M phosphate buffer pH 6.80)
[8] = HMB final concentration 0.11 weight/volume % in Aminofluid, 0 h after addition
[9] = HMB final concentration 0.11 weight/volume % in Aminofluid, 24 h after addition, room temperature
[10] = HMB final concentration 0.21 weight/volume % in Aminofluid, 0 h after addition
[11] = HMB final concentration 0.42 weight/volume % in Aminofluid, 24 h after addition, room temperature
[12] = mixing ratio 0.17 Vol/Vol (aqueous 100 g/L HMB solution/0.2M phosphate buffer pH 6.80)

Transmittance T % (660 nm) [1, 6] [%]	Transmittance T % (660 nm) [1, 7] [%]	Insoluble salt formation (in words) ([1]; mixing with phosphate buffer)	Insoluble salt formation (in words) [2]	Transmittance T % (660 nm) [2, 8] [%]	Transmittance T % (660 nm) [2, 9] [%]	Transmittance T % (660 nm) [2, 10] [%]	Transmittance T % (660 nm) [2, 11] [%]	Transmittance T % (660 nm) [1, 12] [%]	pH [4]	Insoluble salt formation (in words) [1]	Solubility [5] [mg/mL]	Solubility (in terms of free form) [5] [mg/mL]	Compound	Electrolyte abnormality (in words) [3]	Solubility in water compared to existing calcium salt (in words) [5]	other results
0.02	0	produces an insoluble salt	forms an insoluble salt	100	70	90	20						CC(C)(O)CC(=O)[O-].CC(C)(O)CC(=O)[O-].O.[Ca+2] [Calcium HMB hydrate, reference compound]	induces the increase in urinary calcium and the decrease in urinary phosphate excretion		Transmittance T % (660 nm) ([1]; mixing ratio 0.01 Vol/Vol (aqueous 100 g/L HMB solution/0.2M phosphate buffer pH 6.80)): 60%
100	100	do not form an insoluble salt	does not form an insoluble salt	100	100	100	100	100	7.9				CC(C)(O)CC(=O)[O-].[Na+] [Example 2, sodium HMB nonhydrate]	does not induce the above electrolyte abnormality		Transmittance T % (660 nm) ([2]; HMB final concentration 0.21 weight/volume % in Aminofluid, 24 h after addition, room temperature): 100%; Transmittance T % (660 nm) ([2]; HMB final concentration 0.42 weight/volume % in Aminofluid, 0 h after addition): 100%; Solubility ([5]; in water, room temperature): 729 mg/mL; Solubility in water compared to existing calcium salt (in words) ([5]; in water, room temperature): greatly enhanced in the solubility in water; Solubility (in terms of free form) ([5]; in water, room temperature, in terms of free HMB): 513 mg/mL
100	100							100	5.7	do not form an insoluble salt	660	577	CC(C)(O)CC(=O)O.N [Example 7, ammonium HMB nonhydrate]		greatly enhanced in the solubility in water	
100	100							100	7.9	do not form an insoluble salt	1011	764	CC(C)(O)CC(=O)[O-].[K+] [Example 5, potassium HMB nonhydrate]		greatly enhanced in the solubility in water	
